The target of one data set is T1, Thromboxane-A synthase (Homo sapiens, UniProt P24557).
T1 sequence (P24557 whole entry): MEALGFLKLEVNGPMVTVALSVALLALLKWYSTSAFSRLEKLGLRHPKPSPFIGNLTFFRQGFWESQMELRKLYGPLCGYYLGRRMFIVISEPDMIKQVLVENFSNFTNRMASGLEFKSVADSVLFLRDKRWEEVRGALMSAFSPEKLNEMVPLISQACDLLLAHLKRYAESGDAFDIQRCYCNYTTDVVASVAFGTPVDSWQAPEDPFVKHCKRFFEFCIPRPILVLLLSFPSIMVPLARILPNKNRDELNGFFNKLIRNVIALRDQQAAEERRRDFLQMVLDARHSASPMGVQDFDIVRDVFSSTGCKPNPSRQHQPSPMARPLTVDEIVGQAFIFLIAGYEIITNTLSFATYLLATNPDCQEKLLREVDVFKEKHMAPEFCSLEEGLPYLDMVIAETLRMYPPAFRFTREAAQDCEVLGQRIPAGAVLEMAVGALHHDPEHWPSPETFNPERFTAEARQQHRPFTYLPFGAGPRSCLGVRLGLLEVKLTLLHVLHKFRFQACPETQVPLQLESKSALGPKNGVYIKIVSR
The data set is described as follows: In vitro inhibition of collagen-induced thromboxane A2 production in human whole blood. In kind it is functional, tissue-based.

For data set [1], the target named is T2, Thromboxane A2 receptor (Homo sapiens, UniProt P21731).
T2 sequence (P21731 whole entry): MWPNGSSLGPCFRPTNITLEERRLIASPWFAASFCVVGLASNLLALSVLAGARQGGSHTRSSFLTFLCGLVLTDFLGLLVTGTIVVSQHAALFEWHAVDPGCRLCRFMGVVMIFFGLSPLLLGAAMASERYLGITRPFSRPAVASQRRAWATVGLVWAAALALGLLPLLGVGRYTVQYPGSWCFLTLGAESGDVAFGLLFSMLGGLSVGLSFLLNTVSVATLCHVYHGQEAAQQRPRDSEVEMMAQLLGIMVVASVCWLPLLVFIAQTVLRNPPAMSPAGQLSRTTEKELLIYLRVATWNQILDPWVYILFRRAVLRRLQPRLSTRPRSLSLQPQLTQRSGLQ
The data set is described as follows: In vitro thromboxane A2 receptor antagonism through inhibition of U-46619 induced platelet aggregation in human whole blood. The class given is functional, tissue-based. The conditions noted are these: read-out: pA2 (converted).

Data set [2] has as its target T3, Thromboxane A2 receptor (Rattus norvegicus, UniProt P34978).
T3 sequence (P34978 whole entry): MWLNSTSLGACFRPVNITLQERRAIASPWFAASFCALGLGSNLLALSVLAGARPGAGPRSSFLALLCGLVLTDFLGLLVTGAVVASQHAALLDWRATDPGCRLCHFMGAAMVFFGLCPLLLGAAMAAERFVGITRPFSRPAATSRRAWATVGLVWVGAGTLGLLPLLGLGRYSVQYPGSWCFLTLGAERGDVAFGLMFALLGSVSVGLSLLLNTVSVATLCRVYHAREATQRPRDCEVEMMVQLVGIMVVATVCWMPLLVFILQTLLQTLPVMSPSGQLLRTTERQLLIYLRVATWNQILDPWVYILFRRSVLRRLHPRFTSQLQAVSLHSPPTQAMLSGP
Description: In vitro thromboxane A2 receptor antagonism through inhibition of U-46619 induced contraction of rat isolated thoracic aortic strip. In kind it is functional. The conditions noted are these: read-out: pA2 (converted).

Data set [3] is described as follows: The half life period was determined. In kind it is ADME.
For data set [4], the system named is Canis familiaris. Description: Tested ex vivo for the percent inhibition of serum TXA2 production with collagen-induced platelet aggregation in anasthetised dog after administration at a dose of 10 ug/kg/min. The class given is functional. The conditions noted are these: Canis lupus familiaris.
The subject of data set [5] is Canis familiaris. Description: Tested ex vivo for the percent inhibition of serum TXA2 production with collagen-induced platelet aggregation in conscious dog at dosage of 10 mg/kg for 12 to 24 h. The class given is functional. Particulars: Canis lupus familiaris.

Usually IC50 stands for the concentration needed to halve the response being measured. Low values mean higher potency, high ones lower potency. On to `O=C(O)CCCC/C=C(/c1cccnc1)c1cccc(CCNS(=O)(=O)c2ccc(I)cc2)c1`, for which half-maximal inhibition against Thromboxane-A synthase (IC50) required 20 nM. Moreover, the Kb at Thromboxane A2 receptor [1] was 794 nM; at Thromboxane A2 receptor [2] it was 10 nM.

For `O=C(O)CCC/C=C(/c1cccnc1)c1cccc(CCNS(=O)(=O)c2ccccc2[N+](=O)[O-])c1`, half-maximal inhibition on Thromboxane-A synthase (IC50) was put at 50.1 nM. Besides, the Kb was 1000 nM at Thromboxane A2 receptor [1] and 200 nM on Thromboxane A2 receptor [2].

At Thromboxane-A synthase, `O=C(O)CCC/C=C(/c1cccnc1)c1cccc(CCNS(=O)(=O)c2ccccc2)c1` gave an IC50 of 50.1 nM. For the same compound, the Kb at Thromboxane A2 receptor [1] was 794 nM; at Thromboxane A2 receptor [2], 15.8 nM.

The half-life is the time in which the quantity being followed falls by half. Higher therefore signals slow loss. As to `O=C(O)CCCCO/N=C(/c1cccnc1)c1cccc(CCNS(=O)(=O)c2ccc(I)cc2)c1`, inhibition on Thromboxane-A synthase was half-maximal at 200 nM (IC50). The Kb at Thromboxane A2 receptor [1] was 2000 nM; at Thromboxane A2 receptor [2], 200 nM. The same compound displayed a half-life in data set [3] of less than 30 min.

By inhibition in vivo is commonly meant the change of the read-out against control, counted positive when it falls. A low value points to a response near the control. Compound `O=C(O)CCC/C=C(/c1cccnc1)c1cccc(CCNS(=O)(=O)c2ccc(I)cc2)c1` gave an IC50 at Thromboxane-A synthase of 31.6 nM. Also, the values for the Kb on Thromboxane A2 receptor [1] and on Thromboxane A2 receptor [2] were 631 nM and 1 nM, respectively. Besides, in the data set on Canis familiaris [4], the inhibition in vivo at 10 µg/kg/min was greater than 98%.

For the compound `O=C(O)CC/C=C(/c1cccnc1)c1cccc(CCNS(=O)(=O)c2ccccc2)c1`, half-maximal inhibition at Thromboxane-A synthase (IC50) was put at 79.4 nM. The Kb at Thromboxane A2 receptor [1] was 7940 nM; at Thromboxane A2 receptor [2], 31.6 nM.

Regarding `O=C(O)CCC/C=C(/c1cccnc1)c1cccc(CCNS(=O)(=O)c2ccc(Cl)c(Cl)c2)c1`, half-maximal inhibition at Thromboxane-A synthase (IC50) was put at 63.1 nM. The Kb on Thromboxane A2 receptor [1] was 316 nM; at Thromboxane A2 receptor [2], 63.1 nM.

Regarding `O=C(O)CCO/N=C(/c1cccnc1)c1cccc(CCNS(=O)(=O)c2ccc(I)cc2)c1`, at Thromboxane-A synthase, the IC50 was 501 nM. Moreover, the Kb on Thromboxane A2 receptor [1] was 100 nM; on Thromboxane A2 receptor [2], 0.631 nM. In data set [3], this compound gave a half-life of less than 30 min.

Compound `O=C(O)CCCO/N=C(/c1cccnc1)c1cccc(CCNS(=O)(=O)c2ccc(I)cc2)c1` had an IC50 against Thromboxane-A synthase of 200 nM. The Kb at Thromboxane A2 receptor [1] is 1580 nM; on Thromboxane A2 receptor [2] it was 12.6 nM. The half-life in data set [3] was less than 30 min.

Consider `O=C(O)CO/N=C(/c1cccnc1)c1cccc(CCNS(=O)(=O)c2ccc(I)cc2)c1`, for which the IC50 against Thromboxane-A synthase was greater than 1000 nM. In addition, the values for the Kb at Thromboxane A2 receptor [1] and on Thromboxane A2 receptor [2] were 200 nM and 1.58 nM, respectively.

Consider `CC(C)(CNS(=O)(=O)c1ccc(I)cc1)c1cccc(/C(=N\OCCC(=O)O)c2cccnc2)c1`, for which the IC50 against Thromboxane-A synthase was 200 nM. The Kb on Thromboxane A2 receptor [1] was 316 nM; on Thromboxane A2 receptor [2] it was 2 nM. This compound also returned a half-life in data set [3] of less than 30 min.

In the data set on Canis familiaris [5], `CC(C)(CNS(=O)(=O)c1ccc(I)cc1)c1cccc(/C(=C\CCCC(=O)O)c2cccnc2)c1` came in with an inhibition in vivo at 10 mg/kg greater than 90%. The IC50 against Thromboxane-A synthase was 31.6 nM. Besides, the results for the Kb on Thromboxane A2 receptor [1] and on Thromboxane A2 receptor [2] were 200 nM and 0.631 nM, respectively. This compound had an inhibition in vivo at 10 µg/kg/min in the data set with Canis familiaris [4] greater than 98%.

With `O=C(O)CCCCO/N=C(/c1cccnc1)c1cccc(C(F)(F)F)c1` [RIDOGREL], the half-life in data set [3] was less than 30 min.

At Thromboxane-A synthase, `O=C(O)CCC/C=C(/c1cccnc1)c1cccc(CCNS(=O)(=O)c2ccc([N+](=O)[O-])cc2)c1` had an IC50 of 39.8 nM. Further, the Kb on Thromboxane A2 receptor [1] was 631 nM; at Thromboxane A2 receptor [2], 3.98 nM.

For `O=C(O)CCC/C=C(/c1cccnc1)c1cccc(CCCNS(=O)(=O)c2ccccc2)c1`, the IC50 on Thromboxane-A synthase was 50.1 nM. For the same compound, the Kb on Thromboxane A2 receptor [1] was 1000 nM; at Thromboxane A2 receptor [2], 126 nM.

For `O=C(O)CCC/C=C(/c1cccnc1)c1cccc(CCNS(=O)(=O)c2ccc(F)cc2)c1`, the IC50 at Thromboxane-A synthase was 31.6 nM. Besides, the Kb was 794 nM on Thromboxane A2 receptor [1] and 25.1 nM on Thromboxane A2 receptor [2].

For the origin of these results see ChEMBL document CHEMBL1125966, “Synthesis and pharmacological evaluation of combined thromboxane receptor antagonist/synthase inhibitors: pyridine-containing sulphonamido acids” (Bioorg Med Chem Lett, 1991).
